The record followed here is US9815851B2, “Pyrrolo carboxamides as modulators of orphan nuclear receptor RAR-related orphan receptor-gamma (RORγ, NR1F3) activity and for the treatment of chronic inflammatory and autoimmune diseases” (PHENEX PHARMACEUTICALS AG, priority 2011, dated 2017).

Like-named read-outs stand apart in the source and are kept apart here.

For one experiment, the target named is T1, RORγ (UniProt P51449).
T1 sequence (P51449 1-518): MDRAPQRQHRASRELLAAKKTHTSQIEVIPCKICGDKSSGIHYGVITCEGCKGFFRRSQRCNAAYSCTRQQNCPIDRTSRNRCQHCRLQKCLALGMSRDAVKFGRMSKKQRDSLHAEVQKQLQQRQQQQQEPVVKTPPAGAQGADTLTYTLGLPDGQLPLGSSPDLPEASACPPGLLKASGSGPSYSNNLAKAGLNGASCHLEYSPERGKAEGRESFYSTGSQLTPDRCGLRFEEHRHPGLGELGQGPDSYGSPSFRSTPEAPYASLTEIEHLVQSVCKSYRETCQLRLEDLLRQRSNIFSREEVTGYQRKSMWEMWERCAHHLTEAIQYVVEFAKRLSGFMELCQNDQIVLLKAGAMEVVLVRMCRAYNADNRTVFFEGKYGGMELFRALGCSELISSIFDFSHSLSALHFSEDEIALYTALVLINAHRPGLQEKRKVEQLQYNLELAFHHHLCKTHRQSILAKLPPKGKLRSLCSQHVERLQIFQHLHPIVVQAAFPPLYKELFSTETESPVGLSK
In words: RORγ Gal4 Reporter Gene Assay in 293T cells (firefly and renilla luciferase). Type of experiment: cell-based, human.

The target of experiment [1] is T2, RORγ ligand binding domain (LBD) (Homo sapiens, UniProt P51449).
T2 construct: made in house; host or cells: E. coli BL-21 (BL3), vector pDEST15
T2 sequence (P51449 269-508 limits assumed): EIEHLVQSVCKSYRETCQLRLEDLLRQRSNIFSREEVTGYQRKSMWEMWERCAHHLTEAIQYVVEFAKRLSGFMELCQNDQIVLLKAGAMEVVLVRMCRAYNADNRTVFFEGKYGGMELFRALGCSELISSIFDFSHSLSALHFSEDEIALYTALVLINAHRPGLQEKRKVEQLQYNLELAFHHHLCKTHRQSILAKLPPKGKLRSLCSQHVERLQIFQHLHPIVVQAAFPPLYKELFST
In words: TR-FRET Activity Assay (ligand sensing, RORγ-LBD / coactivator peptide interaction, LANCE). Type of experiment: biochemical.

Where [2] appears, read: second value of the cell, Gal4 reporter gene assay in 293T cells, firefly luciferase.
Setting [3] is: third value of the cell, Gal4 reporter gene assay in 293T cells, renilla normalised luciferase.
The mark [4] stands for this setting: first value of the cell FRET/FF/REN, TR-FRET activity assay, read-out: pIC50 (FRET) (converted).

As for `Cc1c(C(=O)NCC(C)(C)NS(C)(=O)=O)cc(-c2ccc(S(=O)(=O)NC(C)(C)C)c(C(C)(C)C)c2)n1CC1CCCCC1` [1/123], the “pIC50 (FF)” value at RORγ (setting [2]) was 6.8. For the same molecule, the “pIC50 (REN)” value at RORγ (setting [3]) amounted to 6.8. For the same molecule, the IC50 in experiment [1] (setting [4]) is 501 nM.
With `Cc1c(C(=O)NC2CSC2)cc(-c2cc(C(C)(C)C)cc(C(C)(C)C)c2)n1CC1CCCCC1` [1/14], at RORγ, the “pIC50 (FF)” value is listed as 5.7/6.5/6.6 and the “pIC50 (REN)” value is given as 5.7/6.5/6.6. Also, the IC50 in experiment [1] is 2000 nM.
Turning to `Cc1c(C(=O)NC2CCOCC2)cc(-c2cc(C(=O)NC(C)(C)C)cc(C3(C)CC3)c2)n1CC1CCCCC1` [17/337], the “pIC50 (FF)” value against RORγ (setting [2]) is on record as 7.7. Further, the “pIC50 (REN)” value on RORγ (setting [3]) amounted to 7.8. Moreover, the IC50 in experiment [1] (setting [4]) is 1000 nM.
For `Cc1c(C(=O)NC2COC2)cc(-c2cc(C(C)(C)C)cc(C(C)(C)C)c2)n1CC1CCC(C)CC1` (stereo not drawn) [1/114], in that order: 6.7, 6.8 and 251 nM.
Taken in the same sequence, the figures for `Cc1c(C(=O)NCCC(C)(C)C(=O)O)cc(-c2cc(C(=O)NC(C)(C)C)cc(C3(C)CC3)c2)n1CC1CCCCC1` [17/340] were 7.1, 7.1 and 1580 nM.
For `Cc1c(C(=O)NCC2CCS(=O)(=O)CC2)cc(-c2ccc(S(=O)(=O)NC(C)(C)C)c3ccccc23)n1CC1CCCCC1` [17/265], in that order: 7.9, 8.0 and 316 nM.
Take `Cc1c(C(=O)NCC(C)(C)NC(=O)CCO)cc(-c2cc(C(C)(C)C)c3c(c2)C2(CCO3)CC2)n1CC1CCCCC1` [17/31]: on RORγ, the “pIC50 (FF)” value was 6.0/7.3/7.3 and the “pIC50 (REN)” value is reported as 6.0/7.3/7.3. In experiment [1], this molecule gave an IC50 of 1000 nM.
In the case of `Cc1c(C(=O)N2CC(N3CCOCC3)C2)cc(-c2cc(C(C)(C)C)cc(C3(C)CC3)c2)n1CC1CCCCC1` [17/344], the “pIC50 (FF)” value on RORγ (setting [2]) is on record as 7.3. In addition, the “pIC50 (REN)” value against RORγ (setting [3]) worked out at 7.5. In addition, the IC50 in experiment [1] (setting [4]) was 631 nM.
Taken in the same sequence, the figures for `Cc1c(C(=O)NC2COC2)cc(-c2cc(C(C)(C)C)cc(C(C)(C)C)c2)n1CC1CC2CCC1C2` (stereo not drawn) [1/117] were 6.8, 7.0 and 501 nM.
Take `Cc1c(C(=O)NC2CCOCC2)cc(C2=NN(C(=O)NC(C)(C)C)C3(CCCCC3)C2)n1CC1CCCCC1` [Example 24, N-(tert-Butyl)-3-(1-(cyclohexylmethyl)-5-methyl-4-((tetrahydro-2H-pyran-4-yl)carbamoyl)-1H-pyrrol-2-yl)-1,2-diazaspiro[4.5]dec-2-ene-1-carboxamide]: the “pIC50 (FF)” value against RORγ (setting [2]) came to 6.4. Moreover, the “pIC50 (REN)” value against RORγ (setting [3]) was found to be 6.4. The IC50 in experiment [1] (setting [4]) is 3160 nM.
`Cc1c(C(=O)NCCN2CCOCC2)cc(-c2cc(C(C)(C)O)cc(C3(C)CC3)c2)n1CC1CCCCC1` [17/316]: at RORγ (setting [2]), the “pIC50 (FF)” value is recorded as 6.3. Besides, the “pIC50 (REN)” value at RORγ (setting [3]) came out at 6.3. For the same molecule, the IC50 in experiment [1] (setting [4]) was 2510 nM.
In the case of `CC(C)(C)NS(=O)(=O)c1ccc(-c2cc(C(=O)NC3CCOCC3)cn2CC2CCCCC2)cc1C(C)(C)C` [17/116], the “pIC50 (FF)” value against RORγ (setting [2]) was 7.3. For the same molecule, the “pIC50 (REN)” value against RORγ (setting [3]) is on record as 7.3. In experiment [1], this molecule had an IC50 of 631 nM.
As to `Cc1c(C(=O)N[C@H]2C[C@H](C(=O)O)C2)cc(-c2ccc(S(=O)(=O)NC3(C#N)CC3)c(C(F)(F)F)c2)n1CC1CCCCC1` [17/362], the “pIC50 (FF)” value against RORγ (setting [2]) amounted to 5.9. Besides, the “pIC50 (REN)” value against RORγ (setting [3]) amounted to 5.8. In addition, in experiment [1] (setting [4]), the IC50 is 1260 nM.
For the molecule `Cc1c(C(=O)N[C@H]2CC[C@@H](C(=O)O)CC2)cc(-c2cc(C(C)(C)C)c3c(c2)C2(CCO3)CC2)n1CC1CCCCC1` [17/58], the “pIC50 (FF)” value on RORγ (setting [2]) is given as 6.7. In addition, the “pIC50 (REN)” value against RORγ (setting [3]) is 6.7. For the same molecule, in experiment [1] (setting [4]), the IC50 is 1580 nM.
For `Cc1c(C(=O)NCC(C)(C)O)cc(-c2cc(C(C)(C)C)nc(C3(C)CC3)n2)n1CC1CCCCC1` [17/356], the “pIC50 (FF)” value at RORγ (setting [2]) was 6.7. Besides, the “pIC50 (REN)” value against RORγ (setting [3]) is listed as 6.7. In experiment [1] (setting [4]), the IC50 was 398 nM.
Consider `Cc1c(C(=O)NCC(C)(C)O)cc(-c2cc(OC(F)(F)F)cc(C3(C)CC3)c2)n1CC1CCCCC1` [17/348], for which the “pIC50 (FF)” value against RORγ (setting [2]) is listed as 6.9. In addition, the “pIC50 (REN)” value against RORγ (setting [3]) is 7.0. Further, in experiment [1] (setting [4]), the IC50 is 316 nM.
For `Cc1c(C(=O)NCCC(C)(C)C(=O)O)cc(-c2ccc(S(=O)(=O)NC(C)(C)C)c(C(F)(F)F)c2)n1CC1CCCCC1` [17/222], in that order: 7.4, 7.5 and 631 nM.
For `Cc1c(C(=O)NCC(C)(C)O)cc(-c2ccc(S(=O)(=O)NC(C)(C)C)c3ccccc23)n1CC1CCC(F)CC1` (stereo not drawn) [17/374], at RORγ (setting [2]), the “pIC50 (FF)” value worked out at 7.3. For the same molecule, the “pIC50 (REN)” value against RORγ (setting [3]) stood at 7.3. Further, the IC50 in experiment [1] (setting [4]) was 1580 nM.
For `Cc1c(C(=O)N2CC3(C2)NC(=O)CNC3=O)cc(-c2ccc(S(=O)(=O)NC(C)(C)C)c(C(F)(F)F)c2)n1CC1CCCCC1` [17/294], at RORγ (setting [2]), the “pIC50 (FF)” value is under 4.7. Besides, the “pIC50 (REN)” value on RORγ (setting [3]) is under 4.7. Further, the IC50 in experiment [1] (setting [4]) is 3160 nM.
On to `Cc1c(C(=O)NC2COC2)cc(-c2cc(C(C)(C)C)cc(C(F)(F)F)c2)n1CC1CCCCC1` [1/78], for which, on RORγ, the “pIC50 (FF)” value is 6.5/7.1/7.1 and the “pIC50 (REN)” value is 6.5/7.1/7.1. The IC50 in experiment [1] is 316 nM.
For the molecule `Cc1c(C(=O)N[C@@H]2CCCOC2)cc(-c2ccc(S(=O)(=O)NC(C)(C)C)c(C(F)(F)F)c2)n1CC1CCCCC1` [17/138], the “pIC50 (FF)” value at RORγ (setting [2]) was found to be 7.1. The “pIC50 (REN)” value against RORγ (setting [3]) is 7.3. Further, the IC50 in experiment [1] (setting [4]) is 200 nM.
Taken in the same sequence, the figures for `Cc1c(C(=O)NC2CC2)cc(-c2cc(C(C)(C)C)cc(C3(C)CC3)c2)n1CC1CCCCC1` [1/83] were 6.9, 7.0 and 316 nM.
As for `Cc1c(C(=O)N2CC(O)C2)cc(-c2cc(C(C)(C)C)cc(C(C)(C)C)c2)n1CC1CCCCC1` [1/7], the “pIC50 (FF)” value at RORγ (setting [2]) was 6.8. The “pIC50 (REN)” value on RORγ (setting [3]) amounted to 6.8. Further, the IC50 in experiment [1] (setting [4]) was 501 nM.
Turning to `Cc1c(C(=O)NC2CCOCC2)cc(-c2cc(S(=O)(=O)N3CCCCC3)c3ccccn23)n1CC1CCCCC1` [17/96], on RORγ (setting [2]), the “pIC50 (FF)” value was 6.9. Further, the “pIC50 (REN)” value at RORγ (setting [3]) came to 7.0. The IC50 in experiment [1] (setting [4]) is 3160 nM.
For `Cc1c(C(=O)NCCC(C)(C)C(=O)O)cc(-c2ccc(S(=O)(=O)NC(C)(C)C)c(OC(F)(F)F)c2)n1CC1CCCCC1` [17/172], in that order: 7.5, 7.5 and 398 nM.
Taken in the same sequence, the figures for `Cc1c(-c2cc(C(=O)N[C@H]3C[C@H](C(=O)O)C3)c(C)n2CC2CCCCC2)ccc(S(=O)(=O)NC(C)(C)C)c1C` [17/272] were 6.8, 6.9 and 501 nM.
For `Cc1c(C(=O)NC2CCOCC2)cc(-c2cc(C(F)(F)F)c3c(c2)C(C)(C)C(=O)N3C)n1CC1CCCCC1` [17/148], in that order: 7.0, 7.0 and 794 nM.
Take `Cc1c(C(=O)NC2CCOCC2)cc(-c2cc(C(F)(F)F)c(S(=O)(=O)NC(C)(C)C)cc2F)n1CC1CCCCC1` [17/230]: the “pIC50 (FF)” value at RORγ (setting [2]) is recorded as 7.5. Moreover, the “pIC50 (REN)” value against RORγ (setting [3]) worked out at 7.6. The IC50 in experiment [1] (setting [4]) is 251 nM.
